{"source": "patent US20250027966A1", "about": "“A MICROFLUIDIC DEVICE TO DISPENSE A METABOLIC INDICATOR” (Hewlett-Packard Development Company, L.P., priority 2021, published 2025)", "tested_on": "E. coli", "test": "Resazurin fluorescence assay of E. coli mixed with ampicillin", "type": "cell-based", "conditions": "for fluorescence: 583 nm; for increase in fluorescence signal compared to resazurin alone: 4 hr incubation", "excerpt": "In some examples, the metabolic indicator includes a fluorogenic compound. A non-limiting example of a fluorogenic compound that may be used as a metabolic indicator includes resazurin which is transformed to resorufin when mixed with living cells, such as with bacteria. […] Resorufin is fluorescent, which allows for monitoring the reaction. For example, resorufin is excited at around 540 nanometers (nm) and emits around 590 nm. Living cells, such as bacteria, may be mixed with resazurin for around one to four hours. For example, after incubation and to overcome the background signal, around 7×10^6 colony forming unit per milliliter (cfu/mL) of Escherichia coli may be present.\nFIG. 2C illustrates the example apparatus 200 of FIG. 2A while the imaging device is capturing images of the substrate, in accordance with the present disclosure. As described with regards to FIG. 2B, the imaging device 215 may capture images at any point in time, and/or once a statiscially significant signal is detected. Also, as described with regards to FIG. 2A, resazurin reduction results in an increase in fluorescence. Accordingly, as bacterial concentration increases over time, more resazurin reduction results and the result is an increase in fluorescence. Antibiotic combinations that disrupt bacterial growth may therefore have less fluorescence than those combinations which have no effect. […] This conclusion may be obtained, because region 219-4, region 219-3, and region 219-2 each have a greater fluorescence level as compared to region 219-1, which is the result of more resazurin reduction by living cells (such as bacteria).\nBackground conversion of resazurin to resorufin (in absence of bacteria) can be calibrated out for increased sensitivity and reduction of assay time. Moreover, the minimum inhibitory concentration of the antibiotic (or antibiotic combination) can be measured, because the microfluidic device 211 is capable of dispensing very small volumes of reagents (e.g., antibiotics), as well as precise volumes of reagent combinations. The rate of fluorescence increase can be correlated to bacterial growth rate and thus the inhibition potential of a particular antibiotic can be measured, as illustrated in the graph included in FIG. 2C. This fluorescence readout may be obtained between 3 and 6 hours, and may thus be used for fast determination of combinations of antibiotics for antibiotic treatment.\nAs illustrated in the top portion of FIG. 6, a MIC test strip from Liofilchem® containing a gradient of ampicillin was applied on an agar plate coated with E. coli. The minimum inhibitory concentration of ampicillin was approximately 2 μg/mL. The E. coli was mixed with various concentrations of ampicillin (0 to 8 μg/mL) and resazurin, and the fluorescence was measured at various times. The concentrations of ampicillin used was 0 μg/mL, 0.25 μg/mL, 0.5 μg/mL, 1 μg/mL, 2 μg/mL, and 8 μg/mL. […] For the sample including E. coli and 8 μg/mL of ampicillin, the fluorescence increased from approximately 10,000 a.u. at 30 minutes, to approximately, 35,000 a.u. at 3 hours and 4 hours. For the sample including E. coli and 0 μg/mL of ampicillin, the fluorescence increased from approximately 10,000 a.u. at 30 minutes, to approximately, 50,000 a.u. at 3 hours and 10^5 a.u at 4 hours. For the sample including E. coli and 0.25 μg/mL of ampicillin, the fluorescence increased from approximately 10,000 a.u. at 30 minutes, to approximately 60,000 a.u. at 3 hours, and approximately 80,000 a.u. at 4 hours. For the sample including E. coli and 0.5 μg/mL of ampicillin, the fluorescence increased from approximately 10,000 a.u. at 30 minutes, to approximately 70,000 a.u. at 3 hours, and approximately 80,000 a.u. at 4 hours. For the sample including E. coli and 1 μg/mL of ampicillin, the fluorescence increased from approximately 10,000 a.u. at 30 minutes, to approximately 75,000 a.u. at 3 hours, and approximately 10^5 a.u. at 4 hours. […]", "data": [{"smiles": "CC1(C)S[C@@H]2[C@H](NC(=O)[C@H](N)c3ccccc3)C(=O)N2[C@H]1C(=O)O", "note": "[ampicillin]", "values": [{"measurement": "fluorescence", "setting": "E. coli + 0.25 μg/mL ampicillin + resazurin, 30 minutes", "value": "approximately 10,000 a.u."}, {"measurement": "fluorescence", "setting": "E. coli + 0.25 μg/mL ampicillin + resazurin, 3 hours", "value": "approximately 60,000 a.u."}, {"measurement": "fluorescence", "setting": "E. coli + 0.25 μg/mL ampicillin + resazurin, 4 hours", "value": "approximately 80,000 a.u."}, {"measurement": "fluorescence", "setting": "E. coli + 0.5 μg/mL ampicillin + resazurin, 30 minutes", "value": "approximately 10,000 a.u."}, {"measurement": "fluorescence", "setting": "E. coli + 0.5 μg/mL ampicillin + resazurin, 3 hours", "value": "approximately 70,000 a.u."}, {"measurement": "fluorescence", "setting": "E. coli + 0.5 μg/mL ampicillin + resazurin, 4 hours", "value": "approximately 80,000 a.u."}, {"measurement": "fluorescence", "setting": "E. coli + 1 μg/mL ampicillin + resazurin, 30 minutes", "value": "approximately 10,000 a.u."}, {"measurement": "fluorescence", "setting": "E. coli + 1 μg/mL ampicillin + resazurin, 3 hours", "value": "approximately 75,000 a.u."}, {"measurement": "fluorescence", "setting": "E. coli + 2 μg/mL ampicillin + resazurin, 30 minutes", "value": "approximately 10,000 a.u."}, {"measurement": "fluorescence", "setting": "E. coli + 2 μg/mL ampicillin + resazurin, 3 hours", "value": "approximately 75,000 a.u."}, {"measurement": "fluorescence", "setting": "E. coli + 8 μg/mL ampicillin + resazurin, 30 minutes", "value": "approximately 10,000 a.u."}, {"measurement": "fluorescence", "setting": "E. coli + 8 μg/mL ampicillin + resazurin, 3 hours", "value": "~35,000 a.u."}, {"measurement": "fluorescence", "setting": "E. coli + 8 μg/mL ampicillin + resazurin, 4 hours", "value": "~35,000 a.u."}, {"measurement": "increase in fluorescence signal compared to resazurin alone", "setting": "[ampicillin]<2 μg/mL", "value": 6, "unit": "×"}, {"measurement": "increase in fluorescence signal compared to resazurin alone", "setting": "ampicillin 8 μg/mL", "value": 2, "unit": "×"}]}]}
